Tested on: P12-Ichikawa
Experiment: cell viability relative to DMSO control; higher = less cytotoxic
Details: 48 h
Summary of the method: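 Viability is expressed as a percentage of DMSO wells within each plate, and cell-free wells serve as background. Seeding densities in the 1536-well plates (5 μl) were 500 cells/well for NOMO1 or SEM leukemia cells and 1000 cells/well for P12-Ichikawa. Each line was adapted for at least four passages in each medium. Library compounds in DMSO were pin-dosed at 47 μM to 0.79 nM (11 points, threefold), and CellTiter-Glo One luminescence was read after 48 h at 37°C.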

[1] = HPLM + 10% dialyzed FBS, 0.000781 µM
[2] = HPLM + 10% dialyzed FBS, 0.00234 µM
[3] = HPLM + 10% dialyzed FBS, 0.00702 µM
[4] = HPLM + 10% dialyzed FBS, 0.0211 µM
[5] = HPLM + 10% dialyzed FBS, 0.0632 µM
[6] = HPLM + 10% dialyzed FBS, 0.19 µM
[7] = HPLM + 10% dialyzed FBS, 0.569 µM
[8] = HPLM + 10% dialyzed FBS, 1.71 µM
[9] = HPLM + 10% dialyzed FBS, 5.12 µM
[10] = HPLM + 10% dialyzed FBS, 15.4 µM
[11] = HPLM + 10% dialyzed FBS, 46.1 µM
[12] = RPMI 5 mM glucose + 10% FBS, 0.000781 µM
[13] = RPMI 5 mM glucose + 10% FBS, 0.00234 µM
[14] = RPMI 5 mM glucose + 10% FBS, 0.00702 µM
[15] = RPMI 5 mM glucose + 10% FBS, 0.0211 µM
[16] = RPMI 5 mM glucose + 10% FBS, 0.0632 µM
[17] = RPMI 5 mM glucose + 10% FBS, 0.19 µM
[18] = RPMI 5 mM glucose + 10% FBS, 0.569 µM
[19] = RPMI 5 mM glucose + 10% FBS, 1.71 µM
[20] = RPMI 5 mM glucose + 10% FBS, 5.12 µM
[21] = RPMI 5 mM glucose + 10% FBS, 15.4 µM
[22] = RPMI 5 mM glucose + 10% FBS, 46.1 µM
[23] = RPMI 5 mM glucose + 10% dialyzed FBS, 0.000781 µM
[24] = RPMI 5 mM glucose + 10% dialyzed FBS, 0.00234 µM
[25] = RPMI 5 mM glucose + 10% dialyzed FBS, 0.00702 µM
[26] = RPMI 5 mM glucose + 10% dialyzed FBS, 0.0211 µM
[27] = RPMI 5 mM glucose + 10% dialyzed FBS, 0.0632 µM
[28] = RPMI 5 mM glucose + 10% dialyzed FBS, 0.19 µM
[29] = RPMI 5 mM glucose + 10% dialyzed FBS, 0.569 µM
[30] = RPMI 5 mM glucose + 10% dialyzed FBS, 1.71 µM
[31] = RPMI 5 mM glucose + 10% dialyzed FBS, 5.12 µM
[32] = RPMI 5 mM glucose + 10% dialyzed FBS, 15.4 µM
[33] = RPMI 5 mM glucose + 10% dialyzed FBS, 46.1 µM

Row | SMILES | cell viability [1] [%] | cell viability [2] [%] | cell viability [3] [%] | cell viability [4] [%] | cell viability [5] [%] | cell viability [6] [%] | cell viability [7] [%] | cell viability [8] [%] | cell viability [9] [%] | cell viability [10] [%] | cell viability [11] [%] | cell viability [12] [%] | cell viability [13] [%] | cell viability [14] [%] | cell viability [15] [%] | cell viability [16] [%] | cell viability [17] [%] | cell viability [18] [%] | cell viability [19] [%] | cell viability [20] [%] | cell viability [21] [%] | cell viability [22] [%] | cell viability [23] [%] | cell viability [24] [%] | cell viability [25] [%] | cell viability [26] [%] | cell viability [27] [%] | cell viability [28] [%] | cell viability [29] [%] | cell viability [30] [%] | cell viability [31] [%] | cell viability [32] [%] | cell viability [33] [%]
1 | CN1CCC(=C2c3ccccc3CCc3sccc32)CC1 | 110 | 108 | 111 | 106 | 111 | 118 | 112 | 111 | 114 | 111 | 90.8 | 108 | 116 | 109 | 117 | 119 | 124 | 132 | 110 | 120 | 116 | 89.7 | 101 | 107 | 113 | 104 | 109 | 108 | 115 | 114 | 115 | 107 | 82.4
2 | CCCC[N+]1(C)[C@@H]2CC(OC(=O)[C@H](CO)c3ccccc3)C[C@H]1[C@@H]1O[C@@H]12 (some centres not stated) | 114 | 121 | 123 | 118 | 116 | 128 | 118 | 95.2 | 104 | 103 | 110 |  |  |  |  |  |  |  |  |  |  |  |  |  |  |  |  |  |  |  |  |  | 
3 | CC=CC1=C(C(=O)O)N2C(=O)[C@@H](NC(=O)[C@H](N)c3ccc(O)cc3)[C@H]2SC1.O | 97.8 | 110 | 121 | 105 | 126 | 90 | 116 | 111 | 113 | 13.8 | 15 | 88.6 | 103 | 111 | 109 | 120 | 115 | 104 | 112 | 107 | 17.7 | 13.7 | 100 | 108 | 107 | 113 | 118 | 109 | 110 | 116 | 114 | 45.3 | 18.8
4 | Cc1cc(-c2ccc(CC(=O)Nc3ccc(-c4cccnc4)cc3)cc2)ccn1 | 113 | 113 | 121 | 115 | 118 | 111 | 112 | 108 | 97.7 | 57.1 | 70.2 | 117 | 119 | 121 | 117 | 118 | 132 | 111 | 106 | 111 | 89.9 | 62.6 | 112 | 110 | 111 | 114 | 119 | 108 | 104 | 106 | 96.3 | 69.1 | 55.7
5 | CN1CCN(c2cc(C(=O)Nc3ccc4c(c3)-c3c(c(C(N)=O)nn3-c3ccc(F)cc3)CC4)c(Cl)cn2)CC1 | 115 | 109 | 102 | 114 | 114 | 107 | 105 | 98.1 | 104 | 95 | 3.56 | 113 | 111 | 116 | 113 | 109 | 120 | 107 | 102 | 103 | 104 | 12 | 113 | 107 | 122 | 111 | 124 | 109 | 105 | 100 | 104 | 102 | 5.67
6 | C[C@@H](Oc1ccc2[nH]nc(/C=C/c3cnn(CCO)c3)c2c1)c1c(Cl)cncc1Cl | 91.7 | 88.7 | 93.6 | 94.2 | 94.2 | 86.2 | 83.9 | 88.3 | 86.2 | 12.2 | 51.3 | 85.9 | 89.8 | 89.4 | 94.3 | 100 | 89.5 | 93.9 | 89.7 | 75.9 | 19.3 | 38 | 78.3 | 92.2 | 83.8 | 90.3 | 94.6 | 86.1 | 76.7 | 86.8 | 88.6 | 23.5 | 41.6
7 | Clc1ccc(C(Cn2ccnc2)OCc2ccc(Sc3ccccc3)cc2)c(Cl)c1 (configuration not stated) | 103 | 110 | 107 | 111 | 117 | 110 | 118 | 115 | 111 | 106 | 9.24 | 115 | 120 | 109 | 115 | 116 | 108 | 110 | 117 | 109 | 105 | 14.3 | 111 | 102 | 111 | 107 | 107 | 104 | 105 | 101 | 102 | 101 | 19.5
8 | CCCCCCCN(CC)CCCC(O)c1ccc(NS(C)(=O)=O)cc1.CCCCCCCN(CC)CCCC(O)c1ccc(NS(C)(=O)=O)cc1.O=C(O)/C=C/C(=O)O (configuration not stated) | 111 | 108 | 116 | 111 | 101 | 125 | 113 | 112 | 112 | 88.9 | 77.7 | 107 | 118 | 113 | 108 | 85.4 | 115 | 116 | 111 | 102 | 89.6 | 69.1 | 100 | 101 | 106 | 113 | 94.8 | 108 | 111 | 113 | 98.9 | 93 | 69.2

— the supplement of paper PMC11451515
